Here are results for 1 molecule from patent US9738933B2, “RNF41 as a biomarker predicting response to lenalidomide in non-del(5q) MDS” (H. LEE MOFFITT CANCER CENTER AND RESEARCH INSTITUTE, INC., priority 2012, dated 2017).

For test [1], the system named is EpoR. Put plainly: EpoR stability in UT-7 cells treated with cycloheximide ± LEN, EpoR immunoblot. It is filed as cell-based. The conditions noted are these: cycloheximide + 1 μM LEN, CHX alone 56 h. As to the method: UT-7 cells (a cell line established from the bone marrow of a patient with acute megakaryoblastic leukemia) were treated with cycloheximide (CHX)±1 μM LEN for 0, 32, 40, 48, 56, 64, and 72 hours. The samples were then separated by SDS-PAGE, and immunoblotted with EpoR antibodies.
(Immunoblotting shows a protein as a band on a membrane.)

In a further test the test system is c-Kit. The test is described as follows: c-Kit (Type 2 receptor) expression in UT-7 cells, immunoblot. The conditions noted are these: LEN 0.1, 1, 10 μM, 1 hour. Type of test: cell-based. Here is the method:
(§1) To examine if the effects of LEN on receptor turnover are restricted to Type 1 cytokine receptors, the effects of LEN on cellular expression of IL3-R (Type 1) and c-Kit (Type 2) were examined. UT-7 cells were treated with increasing concentrations of LEN (0 μM (control), 0.1 μM, 1 μM, and 10 μM) for 1 hour. Samples were separated by SDS-PAGE and immunoblotted with IL3-R (Type 1) and c-Kit (Type 2) antibodies.

The test system of another test is IL3-R. Put plainly: IL3-R (Type 1 receptor) expression in UT-7 cells, immunoblot. It is filed as cell-based. The conditions noted are these: LEN 0.1, 1, 10 μM, 1 hour. As to the method:
as §1

The test system of test [2] is EpoR. The test is described as follows: LEN-induced EpoR expression in HEK293T cells transfected with EpoR and/or RNF41, immunoblot densitometry. It is filed as cell-based. The conditions noted are these: EpoR+pMet7-RNF41 vs EpoR HEK293T cells, LEN 0.1, 1, 10 μM, 1 hour. Here is the method: FIG. 1 is a bar graph plotting the ratio of EpoR/Actin in EpoR and EpoR+pMet7-RNF41 HEK293T cells treated with increasing concentrations of LEN (0 μM (control), 0.1 μM, 1 μM, and 10 μM).
To confirm that RNF41 is the principal target of LEN responsible for EpoR stabilization, HEK293T cells were transfected with EpoR and/or RNF41 expression vectors using the calcium phosphate method. Transfected cells were treated with increasing concentrations of LEN (0 μM (control), 0.1 μM, 1 μM, and 10 μM) for 1 hour, separated by SDS-PAGE, and immunoblotted with EpoR antibodies. Steady state EpoR expression was lower in EpoR/RNF41 cells compared with cells transfected with EpoR alone.

Test [3] deals with EpoR. The test is described as follows: EpoR ubiquitination in bortezomib pre-treated UT-7 cells, EpoR immunoprecipitation and ubiquitin immunoblot. Type of test: cell-based. The conditions noted are these: bortezomib 20 nM 24 hours, then LEN 0.1, 1, 10 μM, 1 hour. Here is the method:
(§2) To investigate the effects of LEN on RNF41 function, protein specific ubiquitination after proteasomal inhibition with bortezomib followed by LEN treatment was investigated. UT-7 cells were pre-treated with bortezomib (20 nM), a proteasome inhibitor, for 24 hours. The cells were subsequently treated with increasing concentrations of LEN (0 μM (control), 0.1 μM, 1 μM, and 10 μM) for 1 hour. The effect of LEN treatment on RNF41 was assessed through immunoprecipitation of RNF41 and immunoblotting for ubiquitin. To verify the observed effects, total protein levels in whole cell lysates were also assessed for RNF41 expression. In order to determine EpoR ubiquitination changes upon LEN treatment, immunoprecipitation of EpoR was carried out followed by immunoblotting for ubiquitin.

The next test deals with T1, EpoR/RNF41 (Homo sapiens, UniProt Q9H4P4).
T1 construct: endogenous in cells; host or cells: UT-7
T1 sequence (Q9H4P4 1-317): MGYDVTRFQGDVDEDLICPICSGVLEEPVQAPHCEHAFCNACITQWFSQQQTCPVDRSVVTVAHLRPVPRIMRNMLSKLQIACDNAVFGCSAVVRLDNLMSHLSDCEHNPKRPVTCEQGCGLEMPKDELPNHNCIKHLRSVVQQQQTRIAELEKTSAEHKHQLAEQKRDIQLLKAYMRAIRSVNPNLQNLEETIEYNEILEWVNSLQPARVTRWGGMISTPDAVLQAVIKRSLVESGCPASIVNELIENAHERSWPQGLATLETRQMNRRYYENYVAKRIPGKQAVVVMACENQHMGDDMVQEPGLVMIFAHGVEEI
T1 sequence (P19235 25-508 partner): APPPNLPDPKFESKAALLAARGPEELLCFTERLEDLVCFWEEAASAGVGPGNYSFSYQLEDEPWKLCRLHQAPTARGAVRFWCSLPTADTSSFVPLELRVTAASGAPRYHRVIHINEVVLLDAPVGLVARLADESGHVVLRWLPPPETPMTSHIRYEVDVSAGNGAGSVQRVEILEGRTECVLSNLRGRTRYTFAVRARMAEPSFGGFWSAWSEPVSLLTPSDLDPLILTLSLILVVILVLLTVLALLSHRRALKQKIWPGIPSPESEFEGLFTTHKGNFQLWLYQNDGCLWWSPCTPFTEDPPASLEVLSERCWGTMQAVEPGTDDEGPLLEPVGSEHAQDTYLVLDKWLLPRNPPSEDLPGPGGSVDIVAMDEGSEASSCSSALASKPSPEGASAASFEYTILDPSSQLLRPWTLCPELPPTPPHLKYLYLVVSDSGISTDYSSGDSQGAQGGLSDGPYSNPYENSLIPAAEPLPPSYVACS
The test is described as follows: EpoR/RNF41 association in UT-7 cells, EpoR immunoprecipitation and RNF41 immunoblot. Type of test: cell-based. As to conditions: LEN 0.1, 1, 10 μM, 1 hour. Here is the method:
To determine if LEN alters EpoR/RNF41 interaction, protein association after LEN treatment was examined. UT-7 cells were treated with increasing concentrations of LEN (0 μM (control), 0.1 μM, 1 μM, and 10 μM) for 1 hour. The cells were then lysed, and the cell lysates were immunoprecipitated for EpoR, and immunoblotted for EpoR and RNF41.

Another test has as its system non-del(5q) MDS. As to conditions: MDS patients with non-del(5q); cited from earlier work.
For another test, the system named is JAK2-associated EpoR. As to conditions: Basiorka, et al. Blood 2011; cited from earlier work.
Another test concerns the target T2, RNF41 (Homo sapiens, UniProt Q9H4P4).
T2 construct: assessed through immunoprecipitation of RNF41 and immunoblotting for ubiquitin; endogenous in cells; host or cells: UT-7
T2 sequence (Q9H4P4 1-317): T1 sequence (Q9H4P4 1-317)
Put plainly: RNF41 auto-ubiquitination in bortezomib pre-treated UT-7 cells, RNF41 immunoprecipitation and ubiquitin immunoblot. Type of test: cell-based. As to conditions: bortezomib 20 nM 24 hours, then LEN 0.1, 1, 10 μM, 1 hour. Here is the method:
as §2

As for `Nc1cccc2c1CN(C1CCC(=O)NC1=O)C2=O` (stereo not drawn) [LEN, Lenalidomide], in the test with EpoR [1], the “cellular EpoR T1/2” value is reported as greater than 72 h. The “cellular expression of c-Kit” value with c-Kit is “remained unchanged”. The “cellular expression of IL3-R” value in the test on IL3-R is given as “Upregulation of IL3-R occurred in a concentration-dependent manner”. The “LEN induced EpoR expression (EpoR/Actin) with RNF41 overexpression” value in the test with EpoR [2] is “blocked LEN induced EpoR expression by approximately two-fold”. Also, the EpoR ubiquitination entry with EpoR [3] is recorded as “corresponding decrease in EpoR ubiquitination”. Also, the “binding of RNF41 to EpoR” value at EpoR/RNF41 is listed as “Increased binding of RNF41 to EpoR occurs in a concentration-dependent manner”. The “patients likely to be responsive to treatment” value in the test on non-del(5q) MDS is reported as “approximately 26%”. Besides, the “cellular expression of JAK2-associated EpoR” value with JAK2-associated EpoR is given as “induces cellular expression of JAK2-associated EpoR in a concentration-dependent manner”. Further, the RNF41 auto-ubiquitination entry on RNF41 is reported as “inhibited RNF41 auto-ubiquitination in a concentration-dependent fashion”.
